In US10421820B2, “Bruton's tyrosine kinase as anti-cancer drug target” (The Research Foundation for The State University of New York, priority 2008, dated 2019):
Entries after “also recorded” stand apart in the source; their conditions may differ.

Columns and labels:
[1] = tested on: SK-Br-3 Her2/neu positive breast cancer cells; experiment: SKBR3 cell number after 72 hours with or without EGF; type: cell-based, human; settings: 50 ng/ml EGF
[2] = tested on: HER2, AKT and ERK phosphorylation; experiment: Immunoblots of HER2, AKT and ERK phosphorylation in SKbr3 cells with or without EGF; type: cell-based, human; settings: 1 μM, EGF 50 ng/ml, 3 hours
SKBR3 xenograft = SKBR3 xenograft tumor growth in NOD/SCID mice (mammary fat pad injection); type: in vivo; settings: 12 mg/kg, day 28, p<0.01
MDA-MB-231 cells = experiment: MDA-MB-231 tail vein metastasis model in NOD/SCID mice; type: in vivo; settings: 12 mg/kg per day, oral
Description: FIG. 24A-24D. […] (24A) 10^6 MDA-MB-231 cells in 100 μl PBS were injected into the tail vein of 4-5 week old female NOD/SCID mice (Jackson Labs). Injected animals were randomly assigned to control or experimental groups. Starting at time of tail vein injection, mice were treated with vehicle or ibrutinib (12 mg/kg per day, oral). At end point, mice were euthanized and bones and organs collected for histological analysis. Note that all bone metastases in control groups led to the development of paralysis (5/16, n=16 per group). […] Thin section of a tumor arising in an untreated control animal.
More specifically, 10^6 MDA-MB-231 (Her2-) cells in 100 μl PBS were injected into the tail vein of 4-5 week old female NOD/SCID mice (Jackson Labs). Injected animals were randomly assigned to control or experimental groups. Starting at time of tail vein injection, mice were treated with vehicle or ibrutinib (12 mg/kg per day, oral). At end point, mice were euthanized then bones and organs collected for histological analysis. Note that bone metastases in control groups led to the development of paralysis (5/16, n=16 per group).

[3] = tested on: HER2+ breast cancer cells; experiment: Growth factor-driven lapatinib resistance in HER2+ breast cancer cells (NRG, EGF); type: cell-based, human
[4] = tested on: MCF-10A cells over-expressing BTK-C; settings: 35 μM LFM-A13 for 24
10A-BTK-C cells = experiment: 2-NBDG glucose uptake in MCF-10A cells over-expressing BTK-C; type: cell-based, human; settings: LFM-A13 for 24 hours
Description: (§1) FIG. 15A-15D. BTK-C promotes glucose uptake. […] Immunofluorescence pictures were taken in INCELL-1000; (15d) Fluorescence intensity was quantified in right. […] (15a) The effect of BTK-C on glucose uptake in breast cancer cell lines. MCF-7 and MDA-MB-361 cell lines were treated as in (15c). (15b) Fluorescence intensity shown at right panel, *p<0.01.

BTK-A and BTK-C proteins = experiment: BTK Tyr223 auto-phosphorylation, anti-Flag IP and Western blot in BT474 cells over-expressing BTK-A-flag or BTK-C-flag; type: cell-based, human
[5] = tested on: MCF-7 and MDA-MB-361 cell lines; experiment: 2-NBDG glucose uptake in breast cancer cell lines; type: cell-based, human; settings: breast cancer cell lines that express BTK-C; LFM-A13 for 24 hours
Description: as §1

BT474 cells [6] = experiment: Cleaved caspase-3 apoptosis assay in BT474 cells; type: cell-based, human
Description: For high-throughput experiments, cells grown on 96-well plates were washed once with 1×PBS, fixed with 2.5% formaldehyde and stained with Hoechst 33342 (Molecular Probes-Invitrogen). Cell images were acquired using an In Cell Analyzer 1000 (GE Healthcare) high content imaging system, with a 20× objective. At least 50 fields were imaged per single experiment. Cell counts and statistics were then performed using the In Cell Investigator 3.4 high-content image analysis software (GE Healthcare). Apoptosis was detected by cleaved Caspase-3 after 48 h to 96 h of shRNA treatments. […] Control cells were treated with DMSO. For the cleaved caspase-3 assay, cells were fixed after treatment with 2.5% formaldehyde, washed with 1×PBS, permeabilized with 0.1% Triton-X 100 (Fisher Chemicals), blocked with 3% normal goat serum (Sigma-Aldrich), incubated with a 1:50-1:200 dilution of the primary antibody, washed with 1×PBS, incubated with a 1:800 dilution of the secondary antibody, washed again with 1×PBS and finally stained with Hoechst 33342 (Molecular Probes-Invitrogen). Cells were imaged by the In Cell Analyzer 1000 (GE Healthcare) or by a Leica TCS SP5 confocal microscope system (Leica Microsystems). At least 500 cells were counted for cleaved Caspase-3. […]

BTK-C-flag protein = BTK-C-flag protein knockdown by immunoblot in HEK 293T cells with BTK-C specific siRNAs; type: cell-based, human; settings: transfected HEK 293T cells
Description: (§2) FIG. 12A-12D. The BTK-C gene produces an 80 kD product. (12a) A schematic representation showing the domains of the BTK-A and predicted BTK-C protein. (12b) Total lysate from breast lines and Namalwa B-cells subjected to immunoblotting and probed with an anti-BTK antibody (BD Transduction Laboratory, 611116). (12c) HEK293 cells co-transfected with a BTK-C flag vector and either BTK-C siRNAs or Non-Target siRNA. Total lysate was prepared 96 hrs post transfection and was used for immunoblotting with anti-Flag antibody. (12d) BT474 cells were transfected with two BTK-C specific siRNAs, non-target siRNA as a control and co-transfected with GFP to mark transfected cells. Transfected cells were counted at 24 h and 96 h and the 96 hr to 24 hr ratio was calculated and expressed as % of the control.

BT474 cells [7] = experiment: BT474 viability after BTK-C specific siRNAs (GFP-marked cell counts, 96 h to 24 h ratio); type: cell-based, human
Description: as §2

CS(=O)(=O)CCNCc1ccc(-c2ccc3ncnc(Nc4ccc(OCc5cccc(F)c5)c(Cl)c4)c3c2)o1 [Lapatinib]
effect of EGF treatment on drug activity (cell number) [1]: EGF treatment counteracts lapatinib to a much larger degree than PCI-32765
ERK activation in the presence of EGF [2]: EGF counteracts lapatinib's effect, causing ERK re-activation

C=CC(=O)N1CCC[C@@H](n2nc(-c3ccc(Oc4ccccc4)cc3)c3c(N)ncnc32)C1 [Ibrutinib]
tumor volumes smaller than vehicle control (SKBR3 xenograft): 45%
decrease of non-lung metastases (MDA-MB-231 cells): 3 fold

C=CC(=O)Nc1cccc(Nc2nc(Nc3ccc(OCCOC)cc3)ncc2F)c1 [AVL-292]
EGFR family activation [3]: has no effect on EGFR family activation
NRG- and EGF-dependent growth factor-driven resistance to lapatinib [3]: prevents NRG- and EGF-dependent growth factor-driven resistance to lapatinib

C/C(O)=C(\C#N)C(=O)Nc1cc(Br)ccc1Br [LFM-A13]
acquired resistance to Doxorubicin (1 μM) [4]: abolishes the acquired resistance to Doxorubicin
glucose uptake (2-NBDG fluorescence) (10A-BTK-C cells): inhibited
phosphorylation of both the BTK-A and BTK-C proteins (BTK-A and BTK-C proteins; 35 μM LFM-A13 for 48 h): significantly impedes phosphorylation
phosphorylation of BTK-A and BTK-C proteins (pY223) (BTK-A and BTK-C proteins; 100 μM LFM-A13 for 45 mins): severely impeded phosphorylation; also recorded: reduces phosphorylation of BTK
glucose uptake (2-NBDG fluorescence) [5]: inhibits glucose uptake
increase of apoptosis levels compared to control (BT474 cells [6]; 25 uM LFM-A13, BT474 cells): 8%
increase of apoptosis levels compared to control (BT474 cells [6]; 35 μM LFM-A13, BT474 cells, 48 h): six fold

siRNA2: BTK-C specific siRNA, sense SEQ ID NO: 68, antisense SEQ ID NO: 69 (sense CAACAAAUGGUUAUUGGAUUU; antisense AUCCAAUAACCAUUUGUUGUU; chemistry not given here; listed as Homo sapiens)
BTK-C-flag protein expression (BTK-C-flag protein): reduce BTK-C-flag protein expression
viability of BT474 cells (BT474 cells [7]): decrease the viability
